Results from patent US20210045385A1, “PYRIDAZINONE-SUBSTITUTED KETOXIMES AS HERBICIDES” (FMC Corporation, priority 2018, published 2021).

How the values were obtained:
Assay type in all cases: in vivo
[1] = test system: barnyardgrass (Echinochloa crus-galli); test: Test D flooded paddy test, visual plant response rating; details: 250 g ai/ha, scale 0 to 100 (0 no effect, 100 complete control), 13 to 15 d
Method in brief: (§1)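 Greenhouse paddy assay scored on a 0–100 visual scale after 13 to 15 d, where 100 means complete control and a dash marks no result; dosing was into 3 cm floodwater over 2-leaf plants.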

rice (Oryza sativa) = test: as above; details: 250 g ai/ha, scale 0 to 100 (0 no effect, 100 complete control), 13 to 15 d
Method in brief: as §1

[2] = test system: duck salad (Heteranthera limosa); test: as above; details: 250 g ai/ha, scale 0 to 100 (0 no effect, 100 complete control), 13 to 15 d
Method in brief: as §1

[3] = test system: sedge umbrella (small-flower umbrella sedge, Cyperus difformis); test: as above; details: 250 g ai/ha, scale 0 to 100 (0 no effect, 100 complete control), 13 to 15 d
Method in brief: as §1

kochia (Bassia scoparia) [4] = test: Test C preemergence, visual plant response rating
Method in brief: (§2)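 Seeds sown in a loam–sand blend got a directed preemergence soil spray; postemergence plants (2–10 cm, one- to two-leaf stage) were sprayed with compound in a non-phytotoxic solvent plus surfactant. Injury was scored visually against untreated controls after about 10 d in a greenhouse on a 0–100 scale (100 = complete control).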

[5] = test system: ragweed (common ragweed, Ambrosia artemisiifolia); test: Test C preemergence, visual plant response rating
Method in brief: as §2

[6] = test system: pigweed (Amaranthus retroflexus); test: Test C preemergence, visual plant response rating
Method in brief: as §2

[7] = test system: barnyardgrass (Echinochloa crus-galli); test: Test C preemergence, visual plant response rating
Method in brief: as §2

[8] = test system: foxtail, giant (giant foxtail, Setaria faberi); test: Test C preemergence, visual plant response rating
Method in brief: as §2

[9] = test system: Italian ryegrass (Lolium mutiflorum); test: Test C preemergence, visual plant response rating
Method in brief: as §2

corn (Zea mays) = test: Test C postemergence, visual plant response rating
Method in brief: as §2

[10] = test system: blackgrass (Alopecurus myosuroides); test: Test C postemergence, visual plant response rating
Method in brief: as §2

[11] = test system: wheat (Triticum aestivum); test: Test C postemergence, visual plant response rating
Method in brief: as §2

kochia (Bassia scoparia) [12] = test: Test C postemergence, visual plant response rating
Method in brief: as §2

[13] = test system: ragweed (common ragweed, Ambrosia artemisiifolia); test: Test C postemergence, visual plant response rating
Method in brief: as §2

[14] = test system: pigweed (Amaranthus retroflexus); test: Test C postemergence, visual plant response rating
Method in brief: as §2

[15] = test system: barnyardgrass (Echinochloa crus-galli); test: Test C postemergence, visual plant response rating
Method in brief: as §2

[16] = test system: foxtail, giant (giant foxtail, Setaria faberi); test: Test C postemergence, visual plant response rating
Method in brief: as §2

[17] = test system: Italian ryegrass (Lolium mutiflorum); test: Test C postemergence, visual plant response rating
Method in brief: as §2

[18] = test system: galium (catchweed bedstraw, Galium aparine); test: Test C postemergence, visual plant response rating
Method in brief: as §2

[19] = Test C, postemergence, 125 g ai/ha
[20] = Test C, postemergence, 500 g ai/ha
[21] = Test C, 31 g ai/ha, 0 is no effect, 100 is complete control

Compound | Plant response rating, Barnyardgrass (Flood) [1] | Plant response rating, Rice (Flood) (rice (Oryza sativa)) | Plant response rating, Ducksalad (Flood) [2] | Plant response rating, Sedge, Umbrella (Flood) [3] | Kochia plant response rating (0 to 100 scale) (kochia (Bassia scoparia) [4]; 125 g ai/ha) | Ragweed plant response rating (0 to 100 scale) ([5]; 125 g ai/ha) | Pigweed plant response rating (0 to 100 scale) ([6]; 125 g ai/ha) | Barnyardgrass plant response rating (0 to 100 scale) ([7]; 125 g ai/ha) | Foxtail, Giant plant response rating (0 to 100 scale) ([8]; 125 g ai/ha) | Ryegrass, Italian plant response rating (0 to 100 scale) ([9]; 125 g ai/ha) | Corn plant response rating (0 to 100 scale) (corn (Zea mays); [19]) | Blackgrass plant response rating (0 to 100 scale) [10, 19] | Wheat plant response rating (0 to 100 scale) [11, 19] | Kochia plant response rating (0 to 100 scale) (kochia (Bassia scoparia) [12]; [19]) | Ragweed plant response rating (0 to 100 scale) [13, 19] | Pigweed plant response rating (0 to 100 scale) [14, 19] | Barnyardgrass plant response rating (0 to 100 scale) [15, 19] | Foxtail, Giant plant response rating (0 to 100 scale) [16, 19] | Ryegrass, Italian plant response rating (0 to 100 scale) [17, 19] | Galium plant response rating (0 to 100 scale) [18, 19] | other results
CON=C(c1csc(C)c1)c1c(O)c(C)nn(C)c1=O [Compound 151] | 0 | 0 | 0 | 0 | 0 | 0 | 0 | 0 | 0 | 0 | 0 | 0 | 0 | 0 | 0 | 10 | 0 | 0 | 20 | 40 | Kochia plant response rating (0 to 100 scale) (kochia (Bassia scoparia) [4]; 500 g ai/ha): 0; Ragweed plant response rating (0 to 100 scale) ([5]; 500 g ai/ha): 0; Pigweed plant response rating (0 to 100 scale) ([6]; 500 g ai/ha): 0; Barnyardgrass plant response rating (0 to 100 scale) ([7]; 500 g ai/ha): 0; Foxtail, Giant plant response rating (0 to 100 scale) ([8]; 500 g ai/ha): 0; Ryegrass, Italian plant response rating (0 to 100 scale) ([9]; 500 g ai/ha): 30; Corn plant response rating (0 to 100 scale) (corn (Zea mays); [20]): 0; Blackgrass plant response rating (0 to 100 scale) [10, 20]: 30; Wheat plant response rating (0 to 100 scale) [11, 20]: 0; Kochia plant response rating (0 to 100 scale) (kochia (Bassia scoparia) [12]; [20]): 20; Ragweed plant response rating (0 to 100 scale) [13, 20]: 30; Pigweed plant response rating (0 to 100 scale) [14, 20]: 10; Barnyardgrass plant response rating (0 to 100 scale) [15, 20]: 10; Foxtail, Giant plant response rating (0 to 100 scale) [16, 20]: 10; Ryegrass, Italian plant response rating (0 to 100 scale) [17, 20]: 30; Galium plant response rating (0 to 100 scale) [18, 20]: 50
CON=C(c1ccc(F)c(Br)c1)c1c(O)c(C)nn(C)c1=O [Compound 177] | 0 | 0 | 0 | 0 | 0 | 20 | 10 | 60 | 10 | 10 | 0 | 0 | 0 | 70 | 60 | 60 | 20 | 10 | 60 | 80 | Kochia plant response rating (0 to 100 scale) (kochia (Bassia scoparia) [4]; [21]): 0; Ragweed plant response rating (0 to 100 scale) [5, 21]: 0; Pigweed plant response rating (0 to 100 scale) [6, 21]: 0; Barnyardgrass plant response rating (0 to 100 scale) [7, 21]: 40; Foxtail, Giant plant response rating (0 to 100 scale) [8, 21]: 0; Ryegrass, Italian plant response rating (0 to 100 scale) [9, 21]: 0; Corn plant response rating (0 to 100 scale) (corn (Zea mays); Postemergence, 31 g ai/ha): 0; Blackgrass plant response rating (0 to 100 scale) ([10]; Postemergence, 31 g ai/ha): 0; Wheat plant response rating (0 to 100 scale) ([11]; Postemergence, 31 g ai/ha): 0; Kochia plant response rating (0 to 100 scale) (kochia (Bassia scoparia) [12]; Postemergence, 31 g ai/ha): 10; Ragweed plant response rating (0 to 100 scale) ([13]; Postemergence, 31 g ai/ha): 20; Pigweed plant response rating (0 to 100 scale) ([14]; Postemergence, 31 g ai/ha): 40; Barnyardgrass plant response rating (0 to 100 scale) ([15]; Postemergence, 31 g ai/ha): 0; Foxtail, Giant plant response rating (0 to 100 scale) ([16]; Postemergence, 31 g ai/ha): 10; Ryegrass, Italian plant response rating (0 to 100 scale) ([17]; Postemergence, 31 g ai/ha): 30; Galium plant response rating (0 to 100 scale) ([18]; Postemergence, 31 g ai/ha): 40
